Test results published in US10752587B2, “Homobispiperidinyl derivatives as liver X receptor beta agonists, compositions and their use” (Merck Sharp & Dohme Corp., priority 2015, dated 2020).
pEC50: −log10 of the molar value.

What was measured:
[1] = biological target: T1, glutathione-S-transferase (GST) tagged LXRbeta LBD (ligand binding domain) (Homo sapiens, UniProt P55055); assay: LanthaScreen TR-FRET Liver X Receptor Coactivator Assay, co-activator recruitment to LXRbeta LBD; assay type: biochemical; details: for Emax / LXR beta Activity @ max dose (%): efficacy at max dose, in relation to reference dual agonist T0901317; for Emax: read-out: LXR beta Activity @ max dose (%); for pEC50: potency (Inflection Point, IP), co-activator recruitment to LXRbeta LBD, in relation to T0901317, read-out: LXR beta IP
T1 construct: purchased Invitrogen pv4658.pps
T1 sequence (P55055 222-460 limits assumed): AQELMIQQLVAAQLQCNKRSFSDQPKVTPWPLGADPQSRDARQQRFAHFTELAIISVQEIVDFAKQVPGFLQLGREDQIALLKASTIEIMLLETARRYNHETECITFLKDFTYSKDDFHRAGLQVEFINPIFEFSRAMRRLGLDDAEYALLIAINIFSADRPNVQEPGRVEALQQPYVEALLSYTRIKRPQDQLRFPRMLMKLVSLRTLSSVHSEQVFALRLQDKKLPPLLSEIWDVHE
In short: (§1)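 Efficacy (Emax) and inflection-point potency were scaled to reference agonist T0901317, acting on both LXR subtypes. Ligand-driven coactivator peptide recruitment was detected by TR-FRET after room-temperature incubation with terbium anti-GST antibody.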

[2] = biological target: T2, glutathione-S-transferase (GST) tagged LXRalpha LBD (ligand binding domain) (Homo sapiens, UniProt Q13133); assay: LanthaScreen TR-FRET Liver X Receptor Coactivator Assay, co-activator recruitment to LXRalpha LBD; assay type: biochemical; details: for Emax / LXR alpha Activity @ max dose (%): efficacy at max dose, in relation to reference dual agonist T0901317; for Emax: read-out: LXR alpha Activity @ max dose (%); for LXR alpha IP (nM) / pEC50: potency (Inflection Point, IP), co-activator recruitment to LXRalpha LBD, in relation to T0901317; for pEC50: read-out: LXR alpha IP
T2 construct: purchased Invitrogen pv4655
T2 sequence (Q13133 209-447 limits assumed): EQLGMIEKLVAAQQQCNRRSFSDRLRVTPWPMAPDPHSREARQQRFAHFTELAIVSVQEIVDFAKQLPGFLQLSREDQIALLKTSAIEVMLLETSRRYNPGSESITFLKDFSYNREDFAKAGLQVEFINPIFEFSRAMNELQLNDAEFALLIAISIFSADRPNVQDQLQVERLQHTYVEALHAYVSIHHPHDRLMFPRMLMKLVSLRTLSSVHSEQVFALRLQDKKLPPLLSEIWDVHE
In short: as §1

SMILES	Emax [1]	pEC50 [1]	Emax [2]	LXR alpha IP (nM) [2]	pEC50 [2]	LXR beta Activity @ max dose (%) [1]	LXR alpha Activity @ max dose (%) [2]
CNC(=O)c1ccc(N2CCC(CC3CCN(C(=O)[C@](O)(c4cccc(OC(C)C)c4)C(F)(F)F)CC3)CC2)cc1Cl [Example 7-121, 2-chloro-N-methyl-4-{4-[(1-{(2R)-3,3,3-trifluoro-2-hydroxy-2-[3-(1-methylethoxy)phenyl]propanoyl}piperidin-4-yl)methyl]piperidin-1-yl}benzamide]	69%	7.68	11%	NO IP	–	–	–
CNC(=O)c1ccc(N2CCC(CC3CCN(C(=O)C(O)(c4cc(F)cc(F)c4)C(F)(F)F)CC3)CC2)cc1Cl (centres unmarked) [Example 7-122, 2-chloro-4-[4-({1-[2-(3,5-difluorophenyl)-3,3,3-trifluoro-2-hydroxypropanoyl]piperidin-4-yl}methyl)piperidin-1-yl]-N-methylbenzamide]	104%	8.05	54%	–	7.03	–	–
CNC(=O)c1ccc(N2CCC(CC3CCN(C(=O)[C@](O)(c4cccc(C(C)C)c4)C(F)(F)F)CC3)CC2)cc1Cl [Example 7-123, 2-chloro-N-methyl-4-{4-[(1-{(2R)-3,3,3-trifluoro-2-hydroxy-2-[3-(1-methylethyl)phenyl]propanoyl}piperidin-4-yl)methyl]piperidin-1-yl}benzamide]	73%	7.77	21%	–	6.51	–	–
CNC(=O)c1ccc(N2CCC(CC3CCN(C(=O)[C@](O)(c4cccc(OC)c4)C(F)(F)C(F)(F)F)CC3)CC2)cc1Cl [Example 7-124, 2-chloro-N-methyl-4-[4-({1-[(2R)-3,3,4,4,4-pentafluoro-2-hydroxy-2-(3-methoxyphenyl)butanoyl]piperidin-4-yl}methyl)piperidin-1-yl]benzamide]	96%	7.55	36%	–	6.32	–	–
CNC(=O)c1ccc(N2CCC(CC3CCN(C(=O)[C@](O)(c4cccc(OC(F)(F)F)c4)C(F)(F)F)CC3)CC2)cc1Cl [Example 7-125, 2-chloro-N-methyl-4-{4-[(1-{(2R)-3,3,3-trifluoro-2-hydroxy-2-[3-(trifluoromethoxy)phenyl]propanoyl}piperidin-4-yl)methyl]piperidin-1-yl}benzamide]	79%	7.43	24%	–	6.13	–	–
CNC(=O)c1ccc(N2CCC(CC3CCN(C(=O)[C@](O)(c4ccccc4)C(F)(F)F)CC3)CC2)cc1Cl [Example 7-126, 2-chloro-N-methyl-4-[4-({1-[(2R)-3,3,3-trifluoro-2-hydroxy-2-phenylpropanoyl]piperidin-4-yl}methyl)piperidin-1-yl]benzamide]	–	7.72	–	–	6.34	91%	46%
CNC(=O)c1ccc(N2CCC(CC3CCN(C(=O)[C@](O)(c4cccc(OC)c4)C(F)(F)F)CC3)CC2)cc1Cl [Example 7-127, 2-chloro-N-methyl-4-[4-({1-[(2R)-3,3,3-trifluoro-2-hydroxy-2-(3-methoxyphenyl)propanoyl]piperidin-4-yl}methyl)piperidin-1-yl]benzamide]	–	7.72	–	NO IP	–	60%	7%
CNC(=O)c1ccc(N2CCC(CC3CCN(C(=O)[C@](O)(c4cccc(C(F)(F)F)c4)C(F)(F)F)CC3)CC2)cc1Cl [Example 7-128, 2-chloro-N-methyl-4-{4-[(1-{(2R)-3,3,3-trifluoro-2-hydroxy-2-[3-(trifluoromethyl)phenyl]propanoyl}piperidin-4-yl)methyl]piperidin-1-yl}benzamide]	78%	7.29	30%	–	5.93	–	–
CNC(=O)c1ccc(N2CCC(CC3CCN(C(=O)C(O)(c4cccc(Cl)c4)C(F)(F)F)CC3)CC2)cc1Cl (centres unmarked) [Example 7-129, 2-chloro-4-[4-({1-[2-(3-chlorophenyl)-3,3,3-trifluoro-2-hydroxypropanoyl]piperidin-4-yl}methyl)piperidin-1-yl]-N-methylbenzamide]	–	7.80	–	NO IP	–	90%	–
O=C(NCCn1cncn1)c1ccc(N2CCC(CC3CCN(C(=O)[C@](O)(c4cc(Cl)cc(Cl)c4)C(F)(F)F)CC3)CC2)cc1Cl [Example 7-130, 2-chloro-4-[4-({1-[(2R)-2-(3,5-dichlorophenyl)-3,3,3-trifluoro-2-hydroxypropanoyl]piperidin-4-yl}methyl)piperidin-1-yl]-N-[2-(1H-1,2,4-triazol-1-yl)ethyl]benzamide]	54%	7.14	7%	NO IP	–	–	–
CNC(=O)c1ccc(N2CCC(CC3CCN(C(=O)[C@](O)(c4ccccc4)C(F)(F)C(F)(F)F)CC3)CC2)nc1Cl [Example 7-131, 2-chloro-N-methyl-6-[4-({1-[(2R)-3,3,4,4,4-pentafluoro-2-hydroxy-2-phenylbutanoyl]piperidin-4-yl}methyl)piperidin-1-yl]pyridine-3-carboxamide]	145%	7.57	74%	–	6.43	–	–
CNC(=O)c1ccc(N2CCC(CC3CCN(C(=O)[C@](O)(c4cc(F)cc(OC)c4)C(F)(F)F)CC3)CC2)nc1Cl [Example 7-132, 2-chloro-N-methyl-6-[4-({1-[(2R)-3,3,3-trifluoro-2-(3-fluoro-5-methoxyphenyl)-2-hydroxypropanoyl]piperidin-4-yl}methyl)piperidin-1-yl] pyridine-3-carboxamide]	124%	8.30	22%	–	7.12	–	–
CNC(=O)c1ccc(N2CCC(CC3CCN(C(=O)C(O)(c4cc(F)cc(F)c4)C(F)(F)F)CC3)CC2)nc1Cl (centres unmarked) [Example 7-133, 2-chloro-6-[4-({1-[2-(3,5-difluorophenyl)-3,3,3-trifluoro-2-hydroxypropanoyl]piperidin-4-yl}methyl)piperidin-1-yl]-N-methylpyridine-3-carboxamide]	123%	8.22	66%	–	7.08	–	–
CNC(=O)c1ccc(N2CCC(CC3CCN(C(=O)[C@](O)(c4cc(Cl)cc(Cl)c4)C(F)(F)F)CC3)CC2)nc1Cl [Example 7-134, 2-chloro-6-[4-({1-[(2R)-2-(3,5-dichlorophenyl)-3,3,3-trifluoro-2-hydroxypropanoyl]piperidin-4-yl}methyl)piperidin-1-yl]-N-methylpyridine-3-carboxamide]	78%	8.05	14%	NO IP	–	–	–
CNC(=O)c1ccc(N2CCC(CC3CCN(C(=O)[C@](O)(c4cccc(OC)c4)C(F)(F)F)CC3)CC2)nc1Cl [Example 7-135, 2-chloro-N-methyl-6-[4-({1-[(2R)-3,3,3-trifluoro-2-hydroxy-2-(3-methoxyphenyl)propanoyl]piperidin-4-yl}methyl)piperidin-1-yl]pyridine-3-carboxamide]	81%	7.89	14%	NO IP	–	–	–
CNC(=O)c1ccc(N2CCC(CC3CCN(C(=O)[C@](O)(c4cccc(OC(C)C)c4)C(F)(F)F)CC3)CC2)nc1Cl [Example 7-136, 2-chloro-N-methyl-6-{4-[(1-{(2R)-3,3,3-trifluoro-2-hydroxy-2-[3-(1-methylethoxy)phenyl]propanoyl}piperidin-4-yl)methyl]piperidin-1-yl}pyridine-3-carboxamide]	86%	7.85	6%	NO IP	–	–	–
CCOc1cccc([C@@](O)(C(=O)N2CCC(CC3CCN(c4ccc(C(=O)NC)c(Cl)n4)CC3)CC2)C(F)(F)F)c1 [Example 7-137, 2-chloro-6-[4-({1-[(2R)-2-(3-ethoxyphenyl)-3,3,3-trifluoro-2-hydroxypropanoyl]piperidin-4-yl}methyl)piperidin-1-yl]-N-methylpyridine-3-carboxamide]	82%	7.64	9%	NO IP	–	–	–
CNC(=O)c1ccc(N2CCC(CC3CCN(C(=O)[C@](O)(c4cccc(OC)c4)C(F)(F)C(F)(F)F)CC3)CC2)nc1Cl [Example 7-138, 2-chloro-N-methyl-6-[4-({1-[(2R)-3,3,4,4,4-pentafluoro-2-hydroxy-2-(3-methoxyphenyl)butanoyl]piperidin-4-yl}methyl)piperidin-1-yl]pyridine-3-carboxamide]	102%	7.52	39%	–	6.37	–	–
